Measurements from US10004678B2, “Anti-dandruff compositions, and methods of use thereof” (LUCAS MEYER COSMETICS CANADA INC., priority 2013, dated 2018).

Columns and labels:
Assay type in all cases: cell-based
Conditions in all cases: w/v concentration, 0.25% is 2.5 g (dry weight)/L
[1] = system: M. furfur (strain 1634.86, Pasteur Institute); experiment: Malassezia species growth inhibition (MIC), M. furfur
Method: (§1) Determination of the effectiveness of the solution prepared as described in Example 1 on 3 different Malassezia species was determined by measuring the lowest concentration of a molecule for which there is no visible growth of the microorganism strain (MIC). The Malassezia species used were M. furfur (strain 1634.86, Pasteur Institute), M. globose (strain IP 2387.96, Pasteur Institute), and M. restricta (strain 7877, Centralbureau voor Schimmerlcultures). Results are presented as a w/v concentration—i.e., 0.04% is 0.4 g/L; 0.078% is 0.78 g/L, 0.156% is 1.56 g/L and 0.25% is 2.5 g (dry weight)/L.

[2] = system: M. globosa (strain IP 2387.96, Pasteur Institute); experiment: Malassezia species growth inhibition (MIC), M. globosa
Method: as §1

[3] = system: M. restricta (strain 7877, Centralbureau voor Schimmerlcultures); experiment: Malassezia species growth inhibition (MIC), M. restricta
Method: as §1

SMILES	MIC (lowest concentration with no visible growth) [1] [%]	MIC (lowest concentration with no visible growth) [2] [%]	MIC (lowest concentration with no visible growth) [3] [%]
Cc1cc(CC(C)CC(C)(C)C)n(O)c(=O)c1.NCCO (stereo not drawn) [Piroctone olamine]	0.078	0.156	0.156
S=[Se]=S [Selenium disulfide]	0.04	0.04	0.04
